The supplement of paper PMC8617591

Legend:
[1] = test system: Mycobacterium tuberculosis Erdman (autoluminescent); test: AUC25, normalised area under dose response up to IC25 (three-drug combination) (fraction (0-1)); higher = more potent at low dose
Method: (§1)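 DiaMOND equipotent three-drug combination dose responses (10 doses, 1.5- or 2-fold spacing, centred on IC90) against autoluminescent M. tuberculosis Erdman in 8 in vitro models. Read-out is OD600, or luminescence for the intracellular and dormancy models, normalised to untreated wells. Hill-fit Einf, AUC25 and GRinf are potency metrics; FIC50 and FIC90 are total Loewe fractional inhibitory concentrations as log2 (negative = synergy).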

[2] = test system: Mycobacterium tuberculosis Erdman (autoluminescent); test: Einf, fitted maximum growth inhibition of three-drug combination (fraction); higher = stronger maximal inhibition
Method: as §1

[3] = test system: Mycobacterium tuberculosis Erdman (autoluminescent); test: total FIC90 (Loewe) at 90% inhibition, three-drug combination (log2); higher = more antagonistic
Method: as §1

[4] = test system: Mycobacterium tuberculosis Erdman (autoluminescent); test: total FIC50 (Loewe) at 50% inhibition, three-drug combination (log2); higher = more antagonistic
Method: as §1

[5] = test system: Mycobacterium tuberculosis Erdman (autoluminescent); test: GRinf, maximum normalised growth rate inhibition (three-drug combination) (unitless (-1 to 1)); higher = less effect (negative = killing)
Method: as §1

CC[C@@H](CO)NCCN[C@@H](CC)CO [ethambutol] + NNC(=O)c1ccncc1 [isoniazid] + COc1c(N2C[C@@H]3CCCN[C@@H]3C2)c(F)cc2c(=O)c(C(=O)O)cn(C3CC3)c12 [moxifloxacin]
Settings	AUC25, [1]	Einf, [2]	GRinf, [5]	total FIC50, [4]	total FIC90, [3]
in vitro model: acidic pH 5.7, time point: constant (~7 days, model-specific)	0.0955	0.722	-0.273	-0.309	–
in vitro model: acidic pH 5.7, time point: terminal (~4-5 doublings, model-specific)	0.0597	0.933	-0.253	0.821	0.326
in vitro model: intracellular J774, time point: constant = terminal	–	0.976	-0.437	–	-0.746

Settings	AUC25, [1]	Einf, [2]	GRinf, [5]	total FIC50, [4]	total FIC90, [3]
in vitro model: butyrate, time point: constant (~7 days, model-specific)	0.0852	0.938	-0.0732	0.655	–
in vitro model: butyrate, time point: terminal (~4-5 doublings, model-specific)	0.0658	0.974	-0.0933	0.598	0.445
in vitro model: cholesterol 0.05 mM, time point: constant (~7 days, model-specific)	0.119	0.798	-0.268	0.425	–
in vitro model: cholesterol 0.05 mM, time point: terminal (~4-5 doublings, model-specific)	0.0714	0.92	0.0114	1.23	0.826
in vitro model: cholesterol-high 0.2 mM, time point: constant (~7 days, model-specific)	0.0564	0.94	-0.315	0.863	–
in vitro model: cholesterol-high 0.2 mM, time point: terminal (~4-5 doublings, model-specific)	0.0472	1	-0.686	1.21	0.977
in vitro model: dormancy (butyrate + nitrate, low O2), time point: constant (~7 days, model-specific)	0.119	0.851	0.356	0.357	–
in vitro model: dormancy (butyrate + nitrate, low O2), time point: terminal (~4-5 doublings, model-specific)	0.125	0.986	-0.134	-0.452	0.658
in vitro model: standard 7H9 glycerol, time point: constant = terminal	0.0677	0.975	-0.186	0.205	0.328
in vitro model: valerate, time point: constant (~7 days, model-specific)	0.0908	0.876	-0.0258	0.301	–
in vitro model: valerate, time point: terminal (~4-5 doublings, model-specific)	0.0784	0.953	0.0174	0.421	0.19

CC[C@@H](CO)NCCN[C@@H](CC)CO [ethambutol] + COc1c(N2C[C@@H]3CCCN[C@@H]3C2)c(F)cc2c(=O)c(C(=O)O)cn(C3CC3)c12 [moxifloxacin] + CO[C@H]1/C=C/O[C@@]2(C)Oc3c(C)c(O)c4c(O)c(c(/C=N/N5CCN(C6CCCC6)CC5)c(O)c4c3C2=O)NC(=O)/C(C)=C\C=C\[C@H](C)[C@H](O)[C@@H](C)[C@@H](O)[C@@H](C)[C@H](OC(C)=O)[C@@H]1C [rifapentine]
Settings	AUC25, [1]	Einf, [2]	GRinf, [5]	total FIC50, [4]	total FIC90, [3]
in vitro model: acidic pH 5.7, time point: constant (~7 days, model-specific)	0.071	0.869	0.0546	0.231	–
in vitro model: acidic pH 5.7, time point: terminal (~4-5 doublings, model-specific)	0.0263	0.959	-0.0323	0.724	0.104
in vitro model: intracellular J774, time point: constant = terminal	–	0.975	-0.351	–	-1.53

Settings	AUC25, [1]	Einf, [2]	GRinf, [5]	total FIC50, [4]	total FIC90, [3]
in vitro model: butyrate, time point: constant (~7 days, model-specific)	0.0619	0.916	0.00267	0.508	–
in vitro model: butyrate, time point: terminal (~4-5 doublings, model-specific)	0.0506	0.961	-0.00309	0.467	-0.223
in vitro model: cholesterol 0.05 mM, time point: constant (~7 days, model-specific)	0.104	0.635	-0.31	0.788	–
in vitro model: cholesterol 0.05 mM, time point: terminal (~4-5 doublings, model-specific)	0.0642	0.834	0.155	1.57	–
in vitro model: cholesterol-high 0.2 mM, time point: constant (~7 days, model-specific)	0.0293	0.932	-0.315	1.07	–
in vitro model: cholesterol-high 0.2 mM, time point: terminal (~4-5 doublings, model-specific)	0.0405	1	-0.787	1.22	0.977
in vitro model: dormancy (butyrate + nitrate, low O2), time point: constant (~7 days, model-specific)	0.0738	0.842	0.339	0.142	–
in vitro model: dormancy (butyrate + nitrate, low O2), time point: terminal (~4-5 doublings, model-specific)	0.116	0.993	-0.177	0.309	0.994
in vitro model: standard 7H9 glycerol, time point: constant = terminal	0.044	0.906	0.0179	0.47	0.148
in vitro model: valerate, time point: constant (~7 days, model-specific)	0.0523	0.893	-0.0774	0.833	–
in vitro model: valerate, time point: terminal (~4-5 doublings, model-specific)	0.0364	0.942	-0.0136	0.843	-0.33

O=[N+]([O-])c1cn2c(n1)OC[C@@H](OCc1ccc(OC(F)(F)F)cc1)C2 [pretomanid] + NC(=O)c1cnccn1 [pyrazinamide] + CO[C@H]1/C=C/O[C@@]2(C)Oc3c(C)c(O)c4c(O)c(c(/C=N/N5CCN(C6CCCC6)CC5)c(O)c4c3C2=O)NC(=O)/C(C)=C\C=C\[C@H](C)[C@H](O)[C@@H](C)[C@@H](O)[C@@H](C)[C@H](OC(C)=O)[C@@H]1C [rifapentine]
Settings	AUC25, [1]	Einf, [2]	GRinf, [5]	total FIC50, [4]	total FIC90, [3]
in vitro model: acidic pH 5.7, time point: constant (~7 days, model-specific)	0.0839	0.9	-0.227	-0.141	–
in vitro model: acidic pH 5.7, time point: terminal (~4-5 doublings, model-specific)	0.0799	0.992	-0.234	-0.0208	-0.284
in vitro model: intracellular J774, time point: constant = terminal	–	0.98	-0.184	–	0.00169

Settings	AUC25, [1]	Einf, [2]	GRinf, [5]	total FIC50, [4]	total FIC90, [3]
in vitro model: butyrate, time point: constant (~7 days, model-specific)	0.101	0.889	0.102	0.0451	-0.0718
in vitro model: butyrate, time point: terminal (~4-5 doublings, model-specific)	0.0909	0.956	0.0745	0.0568	0.587
in vitro model: cholesterol 0.05 mM, time point: constant (~7 days, model-specific)	0.118	0.768	-0.296	–	–
in vitro model: cholesterol 0.05 mM, time point: terminal (~4-5 doublings, model-specific)	0.103	0.936	-0.415	1.28	–
in vitro model: cholesterol-high 0.2 mM, time point: constant (~7 days, model-specific)	0.0849	0.919	-0.211	0.553	–
in vitro model: cholesterol-high 0.2 mM, time point: terminal (~4-5 doublings, model-specific)	0.0594	0.999	-0.626	1.12	0.566
in vitro model: dormancy (butyrate + nitrate, low O2), time point: constant (~7 days, model-specific)	0.0875	0.881	0.197	0.097	0.142
in vitro model: dormancy (butyrate + nitrate, low O2), time point: terminal (~4-5 doublings, model-specific)	0.0996	0.995	-0.152	-0.593	0.838
in vitro model: standard 7H9 glycerol, time point: constant = terminal	0.0581	0.893	0.139	-0.0175	–
in vitro model: valerate, time point: constant (~7 days, model-specific)	0.0881	0.855	0.0565	0.0684	–
in vitro model: valerate, time point: terminal (~4-5 doublings, model-specific)	0.0574	0.918	0.0492	0.378	-0.054
